Measured values from patent US12350276B2, “Methods for the treatment of cancer using 1-(4-{[4-(dimethylamino)piperidin-1-yl]carbonyl}phenyl)-3-[4-(4,6-dimorpholin-4-yl-1,3,5-triazin-2-yl)phenyl]urea” (Celcuity Inc., priority 2021, dated 2025).

Columns and labels:
Rb-negative tumors = conditions: reported by Michaud et al., Cancer Res. 70:3228-3238 (2010); cited from earlier work
[1] = system: patients with ER+/HER2− metastatic breast cancer; assay: Phase 1b trial, expansion portion: gedatolisib plus palbociclib plus fulvestrant or letrozole; assay type: in vivo, human; conditions: for Overall Response Rate: partial objective response; for # of Partial Responses: patients who failed 2 or more prior lines of therapy; for median duration of treatment, Arm D relative to Arm C: 3 weeks on/1 week off vs weekly
Excerpt: To evaluate this hypothesis, Pfizer initiated a Phase 1b trial dose-finding trial with a four-armed expansion portion for safety and efficacy to evaluate gedatolisib when added to either the standard doses of palbociclib plus letrozole or palbociclib plus fulvestrant in patients with ER+/HER2− metastatic breast cancer. PI3K mutation status was not used as an eligibility criterion. Patient enrollment for the trial is complete. A preliminary analysis for the 103 patients enrolled in the expansion portion of the Phase 1b clinical trial, as of the database cutoff date of Jan. […] 1. Objectives
(§1) This is a Phase 1b, multicenter, open-label, study in patients with mBC. This study has both a dose escalation and expansion portion. The dose escalation portion will identify the MTD of the combination of gedatolisib plus palbociclib/letrozole and gedatolisib plus palbociclib/fulvestrant. The expansion portion will estimate the objective response rate of the combination of gedatolisib plus palbociclib/letrozole and the combination of gedatolisib plus palbociclib/fulvestrant.
The study population for the dose escalation and the dose expansion consists of patients of any menopausal status with ER-positive, HER2-negative, metastatic or locally-recurrent/advanced breast cancer (mBC).
Once the MTD of each combination was determined this triggers the initiation of the expansion portion, which comprises 4 arms, as follows: (1) Arm A: first-line endocrine-based therapy; (2) Arm B: second- or third-line endocrine-based therapy, without prior palbociclib (or other CDK inhibitor) therapy; (3) Arm C: second- or third-line endocrine-based therapy with prior exposure to palbociclib (or other CDK inhibitor) therapy, in which gedatolisib is administered once weekly for four weeks; and (4) Arm D: second or third line endocrine based therapy with progression on palbociclib (or other CDK inhibitor) therapy (as the most recent regimen), in which gedatolisib is administered on a three weeks on/one week off (3:1) schedule.
All cycles are 28 days in length. Gedatolisib is administered IV weekly on Days 1, 8, 15 and 22 of each cycle (except for Arm D, in which gedatolisib is administered on Days 1, 8 and 15 of each cycle), palbociclib is administered at 125 mg/day orally continuously dosed for 3 weeks followed by 1 week off, repeated at each subsequent cycle. Letrozole 2.5 mg daily is administered orally on a continuous basis (daily) and fulvestrant is administered at a dose of 500 mg intramuscularly on Cycle 1 Day 1, Cycle 1 Day 15, Cycle 2 Day 1, and then on […] of each subsequent cycle (±3 days).
Gedatolisib was administered weekly as an IV infusion over approximately 30 minutes. (Dose Escalation; Dose Expansion: Arm A, Arm B and Arm C).
In Arm D of the Dose Expansion portion, gedatolisib was administered on a 3 week on/one week off schedule as an IV infusion over approximately 30 minutes. No premedication was required.
The coprimary efficacy endpoints of the study were (1) first cycle Dose-Limiting Toxicities (DLTs); and (2) Objective response (OR) as assessed by the Investigator.
The secondary efficacy endpoints of the study were: • 1) Safety including adverse events as characterized by type, frequency, severity, timing, seriousness and relationship to study therapy and laboratory abnormalities as characterized by type, frequency, severity and timing. • 2) Tumor response for the dose escalation portion of the study. • 3) DR and PFS (as assessed using the RECIST v 1.1) for the expansion portion of the study. • 4) QTc interval. • 5) Single and multiple dose PK parameters of gedatolisib and palbociclib. Multiple dose PK parameters of fulvestrant and letrozole (Dose Escalation portion only). • 6) Single and multiple dose PK parameters of gedatolisib (Dose Expansion portion only). 7. Results
Arm D patients received gedatolisib (180 mg IV three weeks on/one week off). […]

[2] = Phase 1b trial, dose escalation portion: maximum tolerated dose; assay type: in vivo, human; conditions: IV, in triplet combination with palbociclib and letrozole or fulvestrant
Excerpt: The primary objective of the study was to assess the safety, tolerability, and maximum tolerated dose (MTD) of the triplet combination of gedatolisib added to either the standard dose of the palbociclib/letrozole or palbociclib/fulvestrant.
as §1
The dose escalation portion of the study initially assess safety and tolerability of the 180 mg/week dose of gedatolisib plus standard doses of palbociclib/letrozole or 180 mg/week dose of gedatolisib plus standard doses of palbociclib/fulvestrant. The dose escalation portion then explore escalating doses of gedatolisib plus each regimen. During the dose escalation 10 DLT evaluable patients are treated at the expected MTD.
The conventional approach to determining the dosing schedule for a therapeutic regimen for cancer patients is to determine the maximum tolerated dose in a Phase 1 clinical trial. […]

[3] = Stability of crystalline form on storage; assay type: physicochemical; conditions: 25° C. and 60% Relative Humidity (RH)
Excerpt: (§2) Gedatolisib is a pan-class I isoform PI3K/mTOR inhibitor with high potency (NCT02626507, Apr. 24, 2020). The chemical synthesis of gedatolisib is disclosed in U.S. Pat. Nos. 8,039,469; 8,217,036; 8,445,486; 8,575,159; 8,748,421; 8,859,542; 9,174,963; 10,022,381, which are hereby incorporated by reference in their entirety. […] Accordingly, formulations that allow for therapeutic dosage levels have been developed.

[4] = Aqueous solubility / achievable solution concentration; assay type: physicochemical; conditions: free base; for aqueous IV or parenteral solution at therapeutic dosage levels
Excerpt: as §2, with “developed. The formulations include gedatolisib, or a methanesulphonate salt thereof, methanesulphonic acid, and water. […] Another formulation disclosed is gedatolisib, or an ethanesulphonate salt thereof, ethanesulphonic acid and water.” for “developed.”

[5] = system: MCF7 xenograft model (ER+/HER2−/PIK3CA mutant); conditions: cited from earlier work
[6] = aqueous formulation with methanesulphonic acid or ethanesulphonic acid; WO2019038657; cited from earlier work
[7] = Arm C, weekly, failed 2 or more prior lines of therapy
[8] = Arm D vs Arm C, failed 2 or more prior lines of therapy
[9] = Arm D, 3 weeks on/1 week off, DIPT < 180 days
[10] = Arm D, 3 weeks on/1 week off, DIPT < 365 days
[11] = Arm D, 3 weeks on/1 week off, failed 2 or more prior lines of therapy

SMILES: CC(=O)c1c(C)c2cnc(Nc3ccc(N4CCNCC4)cn3)nc2n(C2CCCC2)c1=O [PD-0332991, 6-acetyl-8-cyclopentyl-5-methyl-2-(5-piperazin-1-yl-pyridin-2-ylammino)-8H-pyrido-[2,3-d]-pyrimidin-7-one]
- activity against Rb-negative tumors (Rb-negative tumors): inactive

SMILES: CN(C)C1CCN(C(=O)c2ccc(NC(=O)Nc3ccc(-c4nc(N5CCOCC5)nc(N5CCOCC5)n4)cc3)cc2)CC1 [gedatolisib, 1-(4-{[4-(Dimethylamino)piperidin-1-yl]carbonyl}phenyl)-3-[4-(4,6-dimorpholin-4-yl-1,3,5-triazin-2-yl)phenyl]urea]
- Median Duration of Gedatolisib (DGT) Treatment ([1]; Arm C, weekly gedatolisib with palbociclib and fulvestrant, DIPT < 180 days): 81 days
- Median Duration of Gedatolisib (DGT) Treatment ([1]; Arm C, weekly gedatolisib with palbociclib and fulvestrant, DIPT < 365 days): 131 days
- Ratio of median DIPT vs. DGT ([1]; Arm C, weekly, DIPT < 180 days): 0.8
- Overall Response Rate ([1]; Arm C, weekly, DIPT < 180 days): 0%
- Overall Response Rate ([1]; Arm C, weekly, DIPT < 180 days, listed as Gedatolisib): 0%
- Ratio of median DIPT vs. DGT ([1]; Arm C, weekly, DIPT < 365 days): 0.9
- Overall Response Rate ([1]; Arm C, weekly, DIPT < 365 days): 15%
- Overall Response Rate ([1]; Arm C, weekly, DIPT < 365 days, listed as Gedatolisib): 15%
- Mean Progression Free Survival [1, 7]: 233
- Objective Response Rate [1, 7]: 32%
- # of Partial Responses ([1]; Arm C, weekly, 19 evaluable): 6
- Mean Progression Free Survival, Odds Ratio [1, 8]: 2.28
- Objective Response Rate, Odds Ratio [1, 8]: 2.4
- Objective Response Rate, Odds Ratio ([1]; Arm D vs Arm C, failed 2 or more prior lines of therapy, listed as Gedatolisib): 2.44
- Ratio of median DIPT vs. DGT [1, 9]: 2.6
- Overall Response Rate [1, 9]: 71%
- Overall Response Rate ([1]; Arm D, 3 weeks on/1 week off, DIPT < 180 days, listed as Gedatolisib): 71%
- Ratio of median DIPT vs. DGT [1, 10]: 1.8
- Overall Response Rate [1, 10]: 73%
- Overall Response Rate ([1]; Arm D, 3 weeks on/1 week off, DIPT < 365 days, listed as Gedatolisib): 73%
- Mean Progression Free Survival [1, 11]: 531
- Objective Response Rate [1, 11]: 78%
- # of Partial Responses ([1]; Arm D, 3 weeks on/1 week off, 9 evaluable): 7
- Median Duration of Gedatolisib (DGT) Treatment ([1]; Arm D, gedatolisib 180 mg IV 3 weeks on/1 week off with palbociclib and fulvestrant, DIPT < 180 days): 270 days
- Median Duration of Gedatolisib (DGT) Treatment ([1]; Arm D, gedatolisib 180 mg IV 3 weeks on/1 week off with palbociclib and fulvestrant, DIPT < 365 days): 276 days
- Median progression free survival ([1]; Arm D: prior endocrine therapy plus CDK4/6 inhibitor, gedatolisib 3 weeks on/1 week off with palbociclib and fulvestrant): 13.2 months
- clinical benefit rate (CBR) ([1]; expansion portion, all arms, 88 evaluable patients, confirmed PR or stable disease for 24 weeks, cutoff Jan. 11, 2021): 75%
- objective response rate (ORR) ([1]; expansion portion, all arms, 88 evaluable patients, confirmed or unconfirmed PR, with palbociclib plus letrozole or fulvestrant, cutoff Jan. 11, 2021, preliminary analysis): 60%
- median duration of treatment, Arm D relative to Arm C ([1]; patients who progressed on immediate prior therapy in ≤6 months): more than 3 times
- median duration of treatment, Arm D relative to Arm C ([1]; patients who progressed on immediate prior therapy in ≤12 months): more than two times longer
- maximum tolerated dose [2]: 180 mg weekly
- chemically and physically stable for [3]: up to 3 years
- water solubility [4]: insufficiently water soluble
- time tumors remained dormant without further therapy ([5]; after triplet therapy (gedatolisib, palbociclib, fulvestrant)): up to 90 days
- tumor response ([5]; combination of gedatolisib with palbociclib and fulvestrant, Pfizer internal preclinical study): durable tumor regressions
- time for tumors to regress to minimal volumes ([5]; triplet therapy (gedatolisib, palbociclib, fulvestrant)): ≤ 20 days
- solution concentration achieved (clear, essentially particle-free solution) [6]: up to 30 mg/ml
